From patent publication US20250101017A1, “SALT CRYSTAL FORM AND FREE BASE CRYSTAL FORM OF KINASE INHIBITOR” (CYTOSINLAB THERAPEUTICS CO., LTD., priority 2022, published 2025)
≈ marks a conversion by molar mass, not a printed value. Like-named read-outs stand apart in the source and are kept apart here.

Experiment: Solubility at 37° C. in buffer solutions with different pH (about 10 mg in 1 ml, 2 h and 24 h); filtrate concentration and pH, XRPD of remaining solid
Assay type: physicochemical
Conditions: for solubility at 2 h / solubility at 24 h: thermodynamic from solid; for solubility at 2 h: read-out: Solubility at 37° C. (mg/ml) 2 h
Description: Approximately 10 mg of malate crystal form VII-A and free base Form A were weighed separately, and 1 ml of buffer solutions with different pH were added to make the solution supersaturated, and the mixtures were stirred at 37° C. for 2 h and 24 hours. The samples were filtered, and the filtrates were measured to determine the concentration and pH value, and the remaining solid was subjected to XRPD determination. The specific results were as follows: […]

SMILES: CCc1nc2c(N)ncc(-c3ccc(N4CCC(N5CCN(CC)CC5)CC4)c(OC)c3)c2nc1NC1CCOCC1 [Free base Form A, 3-ethyl-8-(4-(4-(4-ethylpiperazin-1-yl)piperidin-1-yl)-3-methoxyphenyl)-N2-(tetrahydro-2H-pyran-4-yl) pyridino [3,4-b]pyrazine-2,5-diamine]
- solubility at 2 h (buffer solution pH 4.5, 37 °C, pH 4.5, aqueous buffer, medium pH 4.5, 2 h): > 10 mg/mL
- solubility at 24 h (buffer solution pH 4.5, 37 °C, pH 4.5, aqueous buffer, medium pH 4.5, 24 h, read-out: Solubility at 37° C.): > 10 mg/mL
- solubility at 24 h (buffer solution pH 4.5, 37 °C, pH 4.5, aqueous buffer, medium pH 4.5, 24 h, read-out: Solubility at 37° C. (mg/ml) 24 h): > 10 mg/mL
- pH (24 h) (filtrate, medium FaSSIF): 5.434
- pH (24 h) (filtrate, medium FeSSIF): 4.992
- pH (24 h) (filtrate, medium H2O): 4.607
- pH (24 h) (filtrate, medium SGF): 1.494
- pH (24 h) (filtrate, medium pH 1.2): 1.463
- pH (24 h) (filtrate, medium pH 3.0): 3.683
- pH (24 h) (filtrate, medium pH 4.5): 4.520
- pH (24 h) (filtrate, medium pH 6.8): 6.180
- pH (24 h) (filtrate, medium pH 7.4): 6.664
- Solubility at 37° C. (mg/ml) 2 h (medium FaSSIF, 2 h): 1.234 mg/mL (≈ 2150 µM)
- Solubility at 37° C. (medium FaSSIF, 2 h, listed as API): 1234 µg/mL (≈ 2150 µM)
- Solubility at 37° C. (mg/ml) 24 h (medium FaSSIF, 24 h): 0.983 mg/mL (≈ 1710 µM)
- Solubility at 37° C. (medium FaSSIF, 24 h, listed as API): 983 µg/mL (≈ 1710 µM)
- Crystal form (medium FaSSIF, XRPD of remaining solid, listed as API): Form A
- pH (24 h) (medium FaSSIF, filtrate, 37° C., listed as API): 5.434
- Solubility at 37° C. (medium FeSSIF, 2 h): >10000 µg/mL
- Solubility at 37° C. (mg/ml) 2 h (medium FeSSIF, 2 h): >10 mg/mL
- Solubility at 37° C. (medium FeSSIF, 24 h): >10000 µg/mL
- Solubility at 37° C. (mg/ml) 24 h (medium FeSSIF, 24 h): >10 mg/mL
- pH (24 h) (medium FeSSIF, filtrate, 37° C., listed as API): 4.992
- Solubility at 37° C. (mg/ml) 2 h (medium H2O, 2 h): 0.0365 mg/mL (≈ 63.5 µM)
- Solubility at 37° C. (medium H2O, 2 h, listed as API): 36.5 µg/mL (≈ 63.5 µM)
- Solubility at 37° C. (mg/ml) 24 h (medium H2O, 24 h): 0.0046 mg/mL (≈ 8 µM)
- Solubility at 37° C. (medium H2O, 24 h, listed as API): 4.6 µg/mL (≈ 8 µM)
- Crystal form (medium H2O, XRPD of remaining solid, listed as API): Form A
- pH (24 h) (medium H2O, filtrate, 37° C., listed as API): 4.607
- Solubility at 37° C. (medium SGF, 2 h): >10000 µg/mL
- Solubility at 37° C. (mg/ml) 2 h (medium SGF, 2 h): >10 mg/mL
- Solubility at 37° C. (medium SGF, 24 h): >10000 µg/mL
- Solubility at 37° C. (mg/ml) 24 h (medium SGF, 24 h): >10 mg/mL
- pH (24 h) (medium SGF, filtrate, 37° C., listed as API): 1.494
- pH (24 h) (medium pH 1.2, filtrate, 37° C., listed as API): 1.463
- pH (24 h) (medium pH 3.0, filtrate, 37° C., listed as API): 3.683
- pH (24 h) (medium pH 4.5, filtrate, 37° C., listed as API): 4.520
- Solubility at 37° C. (mg/ml) 2 h (medium pH 6.8, 2 h): 0.294 mg/mL (≈ 512 µM)
- Solubility at 37° C. (medium pH 6.8, 2 h, listed as API): 294 µg/mL (≈ 512 µM)
- Solubility at 37° C. (mg/ml) 24 h (medium pH 6.8, 24 h): 0.271 mg/mL (≈ 471 µM)
- Solubility at 37° C. (medium pH 6.8, 24 h, listed as API): 271 µg/mL (≈ 471 µM)
- Crystal form (medium pH 6.8, XRPD of remaining solid, listed as API): Form A
- pH (24 h) (medium pH 6.8, filtrate, 37° C., listed as API): 6.180
- Solubility at 37° C. (mg/ml) 2 h (medium pH 7.4, 2 h): 0.012 mg/mL (≈ 20.9 µM)
- Solubility at 37° C. (medium pH 7.4, 2 h, listed as API): 12 µg/mL (≈ 20.9 µM)
- Solubility at 37° C. (mg/ml) 24 h (medium pH 7.4, 24 h): 0.016 mg/mL (≈ 27.8 µM)
- Solubility at 37° C. (medium pH 7.4, 24 h, listed as API): 16 µg/mL (≈ 27.8 µM)
- Crystal form (medium pH 7.4, XRPD of remaining solid, listed as API): Form A
- pH (24 h) (medium pH 7.4, filtrate, 37° C., listed as API): 6.664
- solubility at 2 h (pH 1.2 buffer solution, 37 °C, pH 1.2, simulated gastric fluid, medium pH 1.2, 2 h): > 10 mg/mL
- solubility at 24 h (pH 1.2 buffer solution, 37 °C, pH 1.2, simulated gastric fluid, medium pH 1.2, 24 h, read-out: Solubility at 37° C. (mg/ml) 24 h): > 10 mg/mL
- solubility at 2 h (pH 3.0 buffer solution, 37 °C, pH 3, aqueous buffer, medium pH 3.0, 2 h): > 10 mg/mL
- solubility at 24 h (pH 3.0 buffer solution, 37 °C, pH 3, aqueous buffer, medium pH 3.0, 24 h, read-out: Solubility at 37° C. (mg/ml) 24 h): > 10 mg/mL
- Crystal form (remaining solid, medium FaSSIF, XRPD): Free base
- Crystal form (remaining solid, medium H2O, XRPD): Free base
- Crystal form (remaining solid, medium pH 6.8, XRPD): Free base
- Crystal form (remaining solid, medium pH 7.4, XRPD): Free base
